The source of these data is US20230146675A1, “PYRIMIDO[5,4-d]PYRIMIDINE DERIVATIVES AS ENT INHIBITORS FOR THE TREATMENT OF CANCERS, AND COMBINATION THEREOF WITH ADENOSINE RECEPTOR ANTAGONISTS” (ITEOS BELGIUM SA, priority 2020, published 2023).

A word on the IC50: it is the concentration at which inhibition is half-maximal.

This test has as its target T1, Phosphodiesterase-6 (Bos taurus, UniProt P11541+P23439).
T1 construct: using an enzyme isolated from bovine retinas at Eurofins-Cerep; tissue Eurofins-Cerep; host or cells: bovine retinas
T1 sequence (P11541 2-856 limits assumed): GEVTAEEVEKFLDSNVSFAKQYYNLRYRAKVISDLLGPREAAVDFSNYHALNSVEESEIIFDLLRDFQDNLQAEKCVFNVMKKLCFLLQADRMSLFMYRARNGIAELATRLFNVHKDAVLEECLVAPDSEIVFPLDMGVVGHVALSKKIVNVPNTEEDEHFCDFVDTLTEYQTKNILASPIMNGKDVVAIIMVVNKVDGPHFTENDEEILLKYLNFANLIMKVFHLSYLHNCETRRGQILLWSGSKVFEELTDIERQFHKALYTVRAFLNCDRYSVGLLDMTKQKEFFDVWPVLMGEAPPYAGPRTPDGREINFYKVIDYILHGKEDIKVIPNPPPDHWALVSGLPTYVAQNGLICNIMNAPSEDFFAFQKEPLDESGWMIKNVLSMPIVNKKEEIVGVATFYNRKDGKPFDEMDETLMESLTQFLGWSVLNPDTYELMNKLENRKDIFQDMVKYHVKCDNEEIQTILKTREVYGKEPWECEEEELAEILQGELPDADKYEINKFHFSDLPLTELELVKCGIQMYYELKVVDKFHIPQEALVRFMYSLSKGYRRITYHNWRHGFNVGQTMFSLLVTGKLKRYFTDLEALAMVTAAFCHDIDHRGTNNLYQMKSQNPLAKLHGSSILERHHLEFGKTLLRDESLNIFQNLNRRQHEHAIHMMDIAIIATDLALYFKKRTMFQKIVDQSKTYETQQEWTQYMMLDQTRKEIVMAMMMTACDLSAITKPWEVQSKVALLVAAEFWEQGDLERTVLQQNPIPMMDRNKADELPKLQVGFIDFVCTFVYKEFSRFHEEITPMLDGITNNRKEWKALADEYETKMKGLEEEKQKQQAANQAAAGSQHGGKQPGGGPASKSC
T1 sequence (P23439 2-850 limits assumed): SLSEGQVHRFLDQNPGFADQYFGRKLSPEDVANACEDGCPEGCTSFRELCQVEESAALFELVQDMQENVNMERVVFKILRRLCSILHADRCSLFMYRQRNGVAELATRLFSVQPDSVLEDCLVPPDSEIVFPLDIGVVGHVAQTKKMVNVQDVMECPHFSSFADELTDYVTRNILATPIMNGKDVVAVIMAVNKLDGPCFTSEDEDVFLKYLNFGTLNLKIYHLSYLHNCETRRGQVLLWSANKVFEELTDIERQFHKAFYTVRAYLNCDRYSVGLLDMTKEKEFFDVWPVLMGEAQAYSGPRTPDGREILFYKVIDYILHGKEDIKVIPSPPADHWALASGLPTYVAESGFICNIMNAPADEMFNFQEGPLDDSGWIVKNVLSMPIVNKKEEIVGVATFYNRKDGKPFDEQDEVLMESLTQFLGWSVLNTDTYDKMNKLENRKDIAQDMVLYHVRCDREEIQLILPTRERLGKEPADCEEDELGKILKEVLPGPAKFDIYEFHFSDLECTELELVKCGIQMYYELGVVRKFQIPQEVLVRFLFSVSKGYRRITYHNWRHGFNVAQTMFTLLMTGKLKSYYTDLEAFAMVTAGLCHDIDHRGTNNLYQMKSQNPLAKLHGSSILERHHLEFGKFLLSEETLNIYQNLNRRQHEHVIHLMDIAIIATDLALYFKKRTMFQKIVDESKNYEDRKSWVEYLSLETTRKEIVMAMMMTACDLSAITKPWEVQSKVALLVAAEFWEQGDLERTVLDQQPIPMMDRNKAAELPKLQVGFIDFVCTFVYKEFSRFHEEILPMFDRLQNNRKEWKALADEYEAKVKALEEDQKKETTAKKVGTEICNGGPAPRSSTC
As to the kind of experiment: PDE6 (non-selective) assay. In kind it is biochemical, bovine. Here is the method:
The test compound (compound 72), reference compound or water (control) were added to a buffer containing 40 mM Tris/HCl (pH 7.4) and 8 mM MgCl2, 450 nM cAMP and 0.0125 μCi [3H]cAMP. Thereafter, the reaction was initiated by addition of the enzyme (about 1.5 U) and the mixture was incubated for 20 min at 22° C. For basal control measurements, the enzyme was omitted from the reaction mixture. Following incubation SPA beads were added. After 30 min at 22° C. under shaking, the amount of [3H]5′AMP was quantified with a scintillation counter (Topcount, Packard). The results were expressed as a percent inhibition of the control enzyme activity. The standard inhibitory reference compound was Ro 20-1724, which was tested in each experiment at several concentrations to obtain an inhibition curve from which its IC50 value was calculated. • Phosphodiesterase-6 quantified by measuring the formation of 5′GMP from cGMP using an enzyme isolated from bovine retinas at Eurofins-Cerep
The test compound (compound 72), reference compound or water (control) were added to a buffer containing 40 mM Tris/HCl (pH 7.8), 3 mM MgCl2, 1.4 mM DTT, 0.21% BSA, 200 mM NH4Cl, 2 μM cGMP and 0.05 μCi [3H]cGMP. […] After 20 min at 22° C. under shaking, the amount of [3H]5′GMP was quantified with a scintillation counter (Topcount, Packard). The results were expressed as a percent inhibition of the control enzyme activity. […]

Molecules are shown by their SMILES. Where two headings read alike, the source gives them in different places.

In the case of `COCCN(CCOC)c1nc(N2CCN(C)C(=O)C2)c2nc(N(CCOC)CCOC)nc(N3CCC(OC)CC3)c2n1` [Compound 72, 4-(2,6-bis(bis(2-methoxyethyl)amino)-8-(4-methoxypiperidin-1-yl)pyrimido[5,4-d]pyrimidin-4-yl)-1-methylpiperazin-2-one], the concentration for half-maximal inhibition (IC50) (read-out: PDE6 (non-selective) IC50) was in the range of 1 to 10 µM and the 50% inhibitory concentration (IC50) (read-out: PDE6 IC50) is 3.23 µM.
